Earlier results on one compound are cited in patent publication US20250311721A1, “UREA COMPLEXES OF ACTIVE INGREDIENTS” (priority 2022, published 2025).

SMILES strings stand for the structures.

Consider `O=C(NCCc1ncc(C(F)(F)F)cc1Cl)c1ccccc1C(F)(F)F` [Fluopyram], for which the “solubility in DMSO” value (DMSO) was above 250 mg/mL. Further, the “solubility in ethyl acetate” value (ethyl acetate) is above 250 mg/mL.
